The values below are quoted from earlier work in patent US11596701B2, “Disinfection method using a disinfection agent formed in situ by reaction of H2O2 and NO2-” (LEIBNIZ-INSTITUT FÜR PLASMAFORSCHUNG UND TECHNOLOGIE E.V., priority 2018, dated 2023).

The conditions of this data set: room temperature.

Like-named read-outs stand apart in the source and are kept apart here.

For peroxynitric acid, the half-life result reads like this: (Lammel et al., 1990) “about 3 minutes”; (as stated in US 20170172149) “about 10 minutes”.
